This is an account of results in patent publication US10640495B2, “Heterocycle derivatives having TrkA inhibitory activity” (Shionogi & Co., Ltd., priority 2015, dated 2020).

The structures appear in SMILES notation. Bounds are passed on as bounds.

Sequence of human TrkA (P04629 440-796): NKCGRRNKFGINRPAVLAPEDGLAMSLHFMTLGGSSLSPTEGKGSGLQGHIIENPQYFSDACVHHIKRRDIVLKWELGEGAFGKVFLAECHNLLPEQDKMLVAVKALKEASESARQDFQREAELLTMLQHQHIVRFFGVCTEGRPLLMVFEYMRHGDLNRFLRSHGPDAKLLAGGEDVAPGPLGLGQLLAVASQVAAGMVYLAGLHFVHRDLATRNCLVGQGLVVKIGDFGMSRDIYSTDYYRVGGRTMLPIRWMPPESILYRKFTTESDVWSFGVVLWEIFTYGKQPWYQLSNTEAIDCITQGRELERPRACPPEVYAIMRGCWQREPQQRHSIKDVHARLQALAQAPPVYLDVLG

The first experiment has as its target human TrkA (Homo sapiens (Human), UniProt P04629). As to the kind of experiment: Human TrkA inhibition assay (Test Example 2). It counts as biochemical. The note with it: Table 154, human TrkA inhibition; read-out: IC50. Summed up: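 Recombinant TrkA (1 nmol/L) was preincubated 15 min at room temperature with compound in HEPES/MgCl2/DTT buffer, then reacted with FL-peptide 27 (1.5 μmol/L) and ATP (500 μmol/L) for 120 min at 37 °C. After EDTA stop, substrate phosphorylation was read by microfluidic mobility shift. IC50 came from logistic regression over 3-fold dilution series.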
Regarding `COCC[C@@H]1C[C@@H](NC(=O)Nc2c(C)c(-c3cnc4c(c3)c(=O)n(C)n4C)nn2-c2ccccc2)[C@H](c2ccc(F)c(F)c2)O1` (racemic) [Compound I-215], the IC50 is less than 100 nM.
The same measure, in the same setting: the same measure for `COCCN1C[C@@H](NC(=O)Nc2c(C)c(-c3cnc4c(c3)nc(C(N)=O)n4C)nn2-c2ccccc2)[C@H](c2ccnc(F)c2)O1` (racemic) [Compound I-219]: less than 100 nM.
Still for that read-out and setting: in the case of `COCCN1C[C@@H](NC(=O)Nc2c(C)c(-c3cnc4c(c3)nc(C#N)n4C)nn2-c2ccccc2)[C@H](c2ccnc(F)c2)O1` (racemic) [Compound I-220] it was less than 100 nM.
On the same count and under the same terms, in the case of `COCCN1C[C@@H](NC(=O)Nc2c(C)c(-c3cnc4c(cnn4C)c3)nn2-c2ccc(F)cc2)[C@H](c2ccnc(F)c2)O1` (racemic) [Compound I-223] it was less than 100 nM; in that of `CNC(=O)c1nc2cc(-c3nn(-c4ccccc4)c(NC(=O)N[C@@H]4CN(CCOC)O[C@H]4c4ccnc(F)c4)c3C)cnc2n1C` (racemic) [Compound I-224], less than 100 nM; in that of `COCCN1C[C@@H](NC(=O)Nc2c(C)c(-c3cnc4c(c3)nc(C(=O)NCCO)n4C)nn2-c2ccccc2)[C@H](c2ccnc(F)c2)O1` (racemic) [Compound I-225], less than 100 nM.
Regarding `COCCN1C[C@@H](NC(=O)Nc2c(C)c(-c3cnc4c(c3)nc(C(F)(F)F)n4C)nn2-c2ccccc2)[C@H](c2ccnc(F)c2)O1` (racemic) [Compound I-226], the IC50 was less than 100 nM.
The same measure, in the same setting: the same measure for `COCCN1C[C@@H](NC(=O)Nc2c(C)c(-c3cnc4c(cnn4CC(F)(F)F)c3)nn2-c2ccccc2)[C@H](c2ccnc(F)c2)O1` (racemic) [Compound I-228]: less than 100 nM; for `COCCN1C[C@@H](NC(=O)Nc2c(C)c(-c3ccnc(C(=O)NO)c3)nn2-c2ccccc2)[C@H](c2ccnc(F)c2)O1` (racemic) [Compound I-230]: less than 100 nM.
On the same count and under the same terms, in the case of `COCCN1C[C@@H](NC(=O)Nc2c(C)c(-c3ccc(C(=O)NOC)nc3)nn2-c2ccccc2)[C@H](c2ccc(F)c(F)c2)O1` (racemic) [Compound I-234] it was less than 100 nM; in that of `COCCN1C[C@@H](NC(=O)Nc2c(C)c(-c3cnc(OC)c(C(N)=O)c3)nn2-c2ccc(F)cc2)[C@H](c2ccnc(F)c2)O1` (racemic) [Compound I-238], less than 100 nM.
On the same count and under the same terms, in the case of `COCCN1C[C@@H](NC(=O)Nc2c(C)c(-c3cnc4c(c3)ncn4CC(F)(F)F)nn2-c2ccccc2)[C@H](c2ccnc(F)c2)O1` (racemic) [Compound I-240] it was less than 100 nM.
Consider `COCC[C@@H]1C[C@@H](NC(=O)Nc2c(C)c(-c3cnc(N4CC(O)C4)nc3)nn2-c2ccccc2)[C@H](c2ccc(F)c(F)c2)O1` (racemic) [Compound I-242], for which the IC50 is less than 100 nM.
Still for that read-out and setting: in the case of `COCCN1C[C@@H](NC(=O)Nc2c(C)c(-c3cnc4nn(CC(F)(F)F)cc4c3)nn2-c2ccccc2)[C@H](c2ccnc(F)c2)O1` (racemic) [Compound I-243] it was less than 100 nM; in that of `COCCN1C[C@@H](NC(=O)Nc2c(C)c(-c3cnc4c(ccc(=O)n4C)c3)nn2-c2ccccc2)[C@H](c2ccnc(F)c2)O1` (racemic) [Compound I-246], less than 100 nM.
For `COCCN1C[C@@H](NC(=O)Nc2c(C)c(-c3cnc(OC)nc3)nn2-c2ccccc2)[C@H](c2ccc(F)cc2)O1` (racemic) [Compound I-247], the IC50 is less than 100 nM.
Take `COCCN1C[C@@H](NC(=O)Nc2c(C)c(-c3cnc(Cl)nc3)nn2-c2ccccc2)[C@H](c2ccnc(F)c2)O1` (racemic) [Compound I-249]: the half-maximal inhibitory concentration (IC50) was less than 100 nM.
On the same count and under the same terms, the same measure for `COCCN1C[C@@H](NC(=O)Nc2c(C)c(-c3cnc(SC)nc3)nn2-c2ccccc2)[C@H](c2ccnc(F)c2)O1` (racemic) [Compound I-250]: less than 100 nM.
On the same count and under the same terms, in the case of `COCCN1C[C@@H](NC(=O)Nc2c(C)c(-c3cnc(C(N)=O)c(F)c3)nn2-c2ccccc2)[C@H](c2ccnc(F)c2)O1` (racemic) [Compound I-255] it was less than 100 nM; in that of `CNC(=O)c1ncc(-c2nn(-c3ccccc3)c(NC(=O)N[C@@H]3CN(CCOC)O[C@H]3c3ccnc(F)c3)c2C)cc1F` (racemic) [Compound I-256], less than 100 nM; in that of `COCCN1C[C@@H](NC(=O)Nc2c(C)c(-c3cnc(C(=O)NC4CC4)c(F)c3)nn2-c2ccccc2)[C@H](c2ccnc(F)c2)O1` (racemic) [Compound I-257], less than 100 nM.
In the case of `COCCN1C[C@@H](NC(=O)Nc2c(C)c(-c3cnc4c(c3)COC4=O)nn2-c2ccccc2)[C@H](c2ccnc(F)c2)O1` (racemic) [Compound I-259], the 50% inhibitory concentration (IC50) is less than 100 nM.
Still for that read-out and setting: the same measure for `COCCN1C[C@@H](NC(=O)Nc2c(C)c(-c3cnc(OC)c(C(=O)NOC)c3)nn2-c2ccccc2)[C@H](c2ccnc(F)c2)O1` (racemic) [Compound I-260]: less than 100 nM; for `COCCN1C[C@@H](NC(=O)Nc2c(C)c(-c3cnc(OC)c(C(=O)NOCCF)c3)nn2-c2ccccc2)[C@H](c2ccnc(F)c2)O1` (racemic) [Compound I-261]: less than 100 nM.
The same measure, in the same setting: in the case of `COCCN1C[C@@H](NC(=O)Nc2c(C)c(-c3ccc4c(c3)CS(=O)(=O)N4C)nn2-c2ccccc2)[C@H](c2ccnc(F)c2)O1` (racemic) [Compound I-262] it was less than 100 nM; in that of `COCCN1C[C@@H](NC(=O)Nc2c(C)c(-c3cnc4c(c3)c(C(F)(F)F)nn4C)nn2-c2ccccc2)[C@H](c2ccnc(F)c2)O1` (racemic) [Compound I-264], less than 100 nM.
On the same count and under the same terms, in the case of `COCCN1C[C@@H](NC(=O)Nc2c(C)c(-c3cnc(N4CC(O)C4)nc3)nn2-c2ccccc2)[C@H](c2ccc(F)cc2)O1` (racemic) [Compound I-265] it was less than 100 nM; in that of `COCCN1C[C@@H](NC(=O)Nc2c(C)c(-c3cnc(N4CCC4)nc3)nn2-c2ccccc2)[C@H](c2ccnc(F)c2)O1` (racemic) [Compound I-266], less than 100 nM.
For the compound `COCCN1C[C@@H](NC(=O)Nc2c(C)c(-c3ccc4nnc(C)n4c3)nn2-c2ccccc2)[C@H](c2ccc(F)cc2)O1` (racemic) [Compound I-267], the half-maximal inhibitory concentration (IC50) is less than 100 nM.
Consider `COCCN1C[C@@H](NC(=O)Nc2c(C)c(-c3cnc4c(c3)c(=O)on4C)nn2-c2ccccc2)[C@H](c2ccnc(F)c2)O1` (racemic) [Compound I-269], for which the IC50 is less than 100 nM.
Same read-out and setting: in the case of `COCCN1C[C@@H](NC(=O)Nc2c(C)c(-c3cnc(S(C)(=O)=O)nc3)nn2-c2ccccc2)[C@H](c2ccnc(F)c2)O1` (racemic) [Compound I-270] it was less than 100 nM.
Still for that read-out and setting: in the case of `COCCN1C[C@@H](NC(=O)Nc2c(C)c(-c3cnc4c(c3)OCCN4C(=O)OC(C)(C)C)nn2-c2ccccc2)[C@H](c2ccnc(F)c2)O1` (racemic) [Compound I-280] it was less than 100 nM.
The same measure, in the same setting: the same measure for `COCCN1C[C@@H](NC(=O)Nc2c(C)c(-c3cnc4c(c3)OCCN4)nn2-c2ccccc2)[C@H](c2ccnc(F)c2)O1` (racemic) [Compound I-281]: less than 100 nM.
Consider `COCCN1C[C@@H](NC(=O)Nc2c(C)c(-c3ccc4nc(C(N)=O)cn4c3)nn2-c2ccccc2)[C@H](c2ccnc(F)c2)O1` (racemic) [Compound I-282], for which the IC50 was less than 100 nM.
The same measure, in the same setting: in the case of `COCCN1C[C@@H](NC(=O)Nc2c(C)c(-c3ccc(N4CCCC4)nc3)nn2-c2ccccc2)[C@H](c2ccnc(F)c2)O1` (racemic) [Compound I-283] it was less than 100 nM; in that of `COCCN1C[C@@H](NC(=O)Nc2c(C)c(-c3ccn4c(C)nnc4c3)nn2-c2ccccc2)[C@H](c2ccc(F)cc2)O1` (racemic) [Compound I-284], less than 100 nM.
The same measure, in the same setting: the same measure for `COCCN1C[C@@H](NC(=O)Nc2c(C)c(-c3cnc(N4CC(OC(=O)c5ccccc5)C4)nc3)nn2-c2ccccc2)[C@H](c2cc(F)nc(F)c2)O1` (racemic) [Compound I-286]: less than 100 nM; for `COCCN1C[C@@H](NC(=O)Nc2c(C)c(-c3cnc(C)s3)nn2-c2ccccc2)[C@H](c2ccnc(F)c2)O1` (racemic) [Compound I-287]: less than 100 nM.
Consider `COCCN1C[C@@H](NC(=O)Nc2c(C)c(-n3cnc(C)c3)nn2-c2ccccc2)[C@H](c2cnc(F)c(F)c2)O1` (racemic) [Compound I-297], for which the concentration for half-maximal inhibition (IC50) was less than 100 nM.

Staying with this experiment, now noted: human TrkA 1 nmol/L, ATP 500 μmol/L, 120 min at 37° C.; read-out: IC50 values (TrkA phosphorylation inhibition).
Turning to `COCCN1C[C@@H](NC(=O)Nc2c(C)c(-c3cnn(C)c3)nn2-c2ccccc2)[C@H](c2cc(F)nc(F)c2)O1` (racemic) [Compound I-217], the half-inhibitory concentration (IC50) is 4.6 nM.
Still for that read-out and setting: in the case of `COCCN1C[C@@H](NC(=O)Nc2c(C)c(-c3ccnc(C(=O)NOC)c3)nn2-c2ccccc2)[C@H](c2ccnc(F)c2)O1` (racemic) [Compound I-232] it was 4.2 nM.
On to `COCCN1C[C@@H](NC(=O)Nc2c(C)c(-c3cnc(OC)c(C(=O)NC4CCOCC4)c3)nn2-c2ccc(F)cc2)[C@H](c2ccnc(F)c2)O1` (racemic) [Compound I-239], for which the IC50 was 3.8 nM.
On the same count and under the same terms, in the case of `COCCN1C[C@@H](NC(=O)Nc2c(C)c(-c3cnc4ncn(CC(F)(F)F)c4c3)nn2-c2ccccc2)[C@H](c2ccnc(F)c2)O1` (racemic) [Compound I-241] it was 3.2 nM; in that of `COCCN1C[C@@H](NC(=O)Nc2c(C)c(N3Cc4cnn(C)c4C3)nn2-c2ccccc2)[C@H](c2ccnc(F)c2)O1` (racemic) [Compound I-244], 17 nM; in that of `COCCN1C[C@@H](NC(=O)Nc2c(C)c(-c3ccc(N4CCC(O)CC4)nc3)nn2-c2ccccc2)[C@H](c2ccnc(F)c2)O1` (racemic) [Compound I-278], 3.7 nM.
Regarding `COCCN1C[C@@H](NC(=O)Nc2c(C)c(-c3cnc4c(c3)OCC(=O)N4)nn2-c2ccccc2)[C@H](c2ccnc(F)c2)O1` (racemic) [Compound I-279], the half-inhibitory concentration (IC50) amounted to 2 nM.
On the same count and under the same terms, in the case of `COCCN1C[C@@H](NC(=O)Nc2c(C)c(-c3cnc(C)nc3)nn2-c2ccccc2)[C@H](c2cc(F)nc(F)c2)O1` (racemic) [Compound I-285] it was 2.7 nM; in that of `COCCN1C[C@@H](NC(=O)Nc2c(C)c(-c3cnc4c(c3)CC(=O)N4C)nn2-c2ccccc2)[C@H](c2ccnc(F)c2)O1` (racemic) [Compound I-291], 2 nM.

The term IC50 denotes the concentration that inhibits the measured activity by half.
